From patent publication US12492356B2, “Oxa-sandalwood-type fragrance compounds” (SYMRISE AG, priority 2020, dated 2025) come the findings set out here.

In this assay the test system is panel of at least four experts. The experiment in a line: Odor detection threshold (ODT), olfactometer TO8, DIN standard EN 13725. The note with it: for ODT / ODT in air: olfactometer TO8, panel of at least four experts, DIN EN 13725. The text has this:
The odor detection threshold (in the following abbreviated as “ODT”) is defined as the lowest concentration of a certain odorous compound (gaseous, sensorially active substance) which is perceivable and thus which can be distinguished with certainty from a blank reference under standard conditions. Generally, lower ODT values are preferred as a lower amount of the fragrance compound is required in order to a achieve strong odor impressions and thus lower amounts can be used for perfuming. However, as the threshold depends on various factors such as concentration, solubility, partition coefficient between air and the olfactory active substance, vapor pressure, polarity, molecular mass etc., predictions referring to the ODT of a substance are difficult to make. Table 2 indicates the ODT values of preferred embodiment in comparison to commercially available Brahmanol® (Symrise AG) and Sandranol® (Symrise AG). The ODT was measured using an olfactometer TO8 and a panel of at least four experts according to DIN standard EN 13725. According to the DIN standard EN 13725, the odor threshold value is defined as the concentration of an odorous substance at which, under defined test conditions, the probability of perceiving the sample is 0.5, i.e. 50% of the test persons indicate an odor perception. Thereby, the quantitative ODT value is given as the ratio of volume fractions of an odor-free comparison matrix, such as air, to the examined matrix at which the odor could just be perceived, i.e. a dilution factor.

Consider `CC1=CCC(CCC(C)CO)C1(C)C` (centres unmarked) [Brahmanol ®, 2-methyl-4-(2′,2′,3′-trimethyl-3′-cyclopenten-1′-yl)-butan-1-ol, reference compound], for which the ODT is reported as 0.0173 ppm (v/v) and the ODT in air came to 6.9 ng/L.
The corresponding values for `COCC1=CCC(C/C=C(\C)CO)C1(C)C` (centres unmarked) [Compound 1, 4-[3-(Methoxymethyl)-2,2-dimethyl-cyclopent-3-en-1-yl]-2-methyl-but-2-en-1-ol] are 0.0089 ppm (v/v) and 7.1 ng/L.
For `COCC1=CCC(CCC(C)CO)C1(C)C` (centres unmarked) [Compound 2, 4-[3-(Methoxymethyl)-2,2-dimethyl-cyclopent-3-en-1-yl]-2-methyl-butan-1-ol], the ODT was 0.00285 ppm (v/v) and the ODT in air was 7.6 ng/L. For the same compound, the “ODT value lower by a factor” value (comparator not named in the sentence (commercial analogue)) is given as 3.
Regarding `CC/C(=C\CC1CC=C(COC)C1(C)C)CO` (centres unmarked) [Compound 3, 2-Ethyl-4-[3-(methoxymethyl)-2,2-dimethyl-cyclopent-3-en-1-yl]but-2-en-1-ol], the ODT is on record as 0.0019 ppm (v/v) and the ODT in air turned out to be 7.7 ng/L. For the same compound, the “threshold value reduced by the factor (in comparison to Brahmanol)” value (compared with Brahmanol) is reported as “about 10”.
As to `C=C(CC(C)CO)C1CC=C(COC)C1(C)C` (centres unmarked) [Compound 4, 4-[3-(Methoxymethyl)-2,2-dimethyl-cyclopent-3-en-1-yl]-2-methyl-pent-4-en-1-ol], the ODT was 0.0025 ppm (v/v) and the ODT in air worked out at 7.6 ng/L.
The matching figures for `CC/C(=C\CC1CC=C(C)C1(C)C)CO` (centres unmarked) [Sandranol ®, 2-ethyl-4-(2′,2′,3′-trimethyl-3′-cyclopenten-1′-yl)-2-buten-1-ol, reference compound]: 0.000205 ppm (v/v) and 7.6 ng/L.
